# Measurements: patent US8623821B2, “Zymogen activators” (Genentech, Inc., priority 2011, dated 2014)
# Entries after “also recorded” stand apart in the source; their conditions may differ. Where a SMILES comes first, the peptide text is derived from it. Bridges are numbered along the chain shown (N, C = ends).
# Columns and labels:
# scHGF = scHGF (Homo sapiens, UniProt P14210, R494E); experiment: BxPC-3 cell survival assay, peptide titrations in the presence of scHGF; format: cell-based; set-up: Full-length recombinant HGF proteins were expressed in 1-liter fermentation cultures of Chinese hamster ovary (CHO) cells; made in house; host or cells: CHO cells (scHGF); conditions: for activation of scHGF / cell survival, in words: BxPC-3 cells, peptide plus scHGF
# scHGF, sequence (P14210 32-728 R494E): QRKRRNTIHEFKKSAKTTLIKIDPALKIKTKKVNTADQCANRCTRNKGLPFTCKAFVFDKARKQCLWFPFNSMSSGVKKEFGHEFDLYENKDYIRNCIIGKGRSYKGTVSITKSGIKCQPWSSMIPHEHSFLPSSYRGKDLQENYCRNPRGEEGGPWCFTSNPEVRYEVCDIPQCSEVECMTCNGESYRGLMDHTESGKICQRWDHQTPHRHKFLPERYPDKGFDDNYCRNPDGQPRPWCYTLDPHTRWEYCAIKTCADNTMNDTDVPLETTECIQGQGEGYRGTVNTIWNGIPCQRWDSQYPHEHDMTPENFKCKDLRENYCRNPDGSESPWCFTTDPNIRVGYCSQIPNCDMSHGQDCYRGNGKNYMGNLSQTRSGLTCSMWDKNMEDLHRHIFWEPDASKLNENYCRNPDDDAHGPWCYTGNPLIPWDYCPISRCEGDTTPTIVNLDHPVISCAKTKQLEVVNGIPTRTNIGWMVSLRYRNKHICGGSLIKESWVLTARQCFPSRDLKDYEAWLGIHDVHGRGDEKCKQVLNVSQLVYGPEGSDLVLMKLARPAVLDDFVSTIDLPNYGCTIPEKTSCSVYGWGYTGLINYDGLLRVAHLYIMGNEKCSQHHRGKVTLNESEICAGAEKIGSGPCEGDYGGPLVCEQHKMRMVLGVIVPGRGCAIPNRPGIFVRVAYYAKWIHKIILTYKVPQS
# Procedure: BxPC-3 cells were obtained from ATCC and maintained in cell culture medium (RPMI, 10% FBS (Sigma), 50 U/ml penicillin/50 μg/ml streptomycin, 2 mM glutamine). For the survival assay, cells were plated at 10,000 cells/well in 96 well tissue culture plates (Falcon 353072) in 50 μl assay diluent (RPMI, 0.1% BSA (Sigma) 50 U/ml penicillin/50 μg/ml streptomycin, 2 mM glutamine). Cells were allowed to attach for 1-2 h in a 37° C. CO2 incubator. Human HGF proteins (HGF, scHGF or scHGF plus peptide titrations) were pre-incubated at room temperature in assay diluent. HGF/peptide mixtures were added to cells in microtiter plates in triplicate at 50 μl per well and plates were incubated at 37° C. in a CO2 incubator. Final concentrations of HGF variants were 400 ng/ml and peptide concentrations were titrated accordingly. After 72 h, 25 μl alamar Blue (Serotec, BUF012B) was added to each well and incubate an additional 2 h at 37° C. in a CO2 incubator. Plates were agitated vigorously for 10 min at room temperature, and fluorescence was read at 530-590 nm in a fluorescent plate reader.
# Using Bx-PC3 cells, peptide titrations in the presence of scHGF were performed and observed robust activation was seen of scHGF signaling through Met, which reached levels equivalent HGF-induced signaling.
# Cellular assays were used to address whether the optimized ZAPtides act as allosteric activators of pro-HGF and stimulate Met signaling in biologically relevant settings of cell survival and migration. […] Importantly, ZAPtides required the presence of scHGF as well as induced […] cell survival that was antagonized by an HGF-blocking anti-Met antibody, each confirming Met pathway selectivity.
# scHGF β = target: T1, scHGF β (Homo sapiens, UniProt P14210, R494E); experiment: scHGF β activation/Met binding assay (biolayer interferometry); conditions: for Kd: peptide titration with 0.5 μM scHGF β, biotinylated Met ECD on sensor, ±stdev of n=3; for binding to scHGF β / activation of Met binding, in words: Met-coated sensor; for AC50: peptide-dependent activation of zHGF β binding to surface immobilized Met ECD, read-out: apparent activation constant (AC50)
# T1 construct: the scHGF β-chain (residues Asn^479 to Ser^728) contains the R494E mutation; His-tag (C); made in house; host or cells: insect cells (pAcGP67 vector)
# T1 sequence (P14210 479-728 R494E): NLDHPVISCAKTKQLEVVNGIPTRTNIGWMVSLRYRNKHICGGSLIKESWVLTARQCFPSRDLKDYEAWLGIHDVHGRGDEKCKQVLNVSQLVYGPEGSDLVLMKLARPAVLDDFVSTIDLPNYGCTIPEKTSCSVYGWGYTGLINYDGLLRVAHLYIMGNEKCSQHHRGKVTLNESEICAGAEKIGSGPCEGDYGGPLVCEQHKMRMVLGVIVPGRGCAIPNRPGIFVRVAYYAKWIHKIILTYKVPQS
# T1 sequence (P08581 27-515 partner limits assumed): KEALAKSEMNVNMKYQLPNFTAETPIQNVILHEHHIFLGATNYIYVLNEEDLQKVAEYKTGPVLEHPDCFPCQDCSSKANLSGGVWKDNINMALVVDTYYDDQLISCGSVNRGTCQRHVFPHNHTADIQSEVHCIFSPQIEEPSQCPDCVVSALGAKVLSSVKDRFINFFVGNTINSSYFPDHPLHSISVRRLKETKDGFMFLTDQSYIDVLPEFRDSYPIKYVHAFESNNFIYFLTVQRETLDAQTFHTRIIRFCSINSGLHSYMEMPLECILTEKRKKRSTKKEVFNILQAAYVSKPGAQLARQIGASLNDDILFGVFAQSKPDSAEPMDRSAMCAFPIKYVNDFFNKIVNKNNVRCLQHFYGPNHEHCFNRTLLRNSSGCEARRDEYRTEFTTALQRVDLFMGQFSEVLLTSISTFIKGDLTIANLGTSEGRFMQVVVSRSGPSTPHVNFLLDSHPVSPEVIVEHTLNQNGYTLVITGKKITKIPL
# Procedure: Met binding assays were carried out utilizing the OctetRed™ biolayer interferometry instrument (ForteBio, Inc.) as reported previously (Landgraf, K. E. et al. (2010) J Biol Chem 285: 40362-72). Biotinylated Met ECD (Sema/PSI-AviTag) was captured on the surface of streptavidin optical sensor tips (SA biosensors, ForteBio, Inc.), and transferred into buffer containing 0.5 μM scHGF β-chain variants in the presence of increasing concentration of indicated peptides. Association and dissociation reactions were monitored to ensure reversible binding between scHGF β and Met. Binding was quantified using the steady-state levels of surface response from the association reaction. Equilibrium constants were derived by least squares fitting of the titration data to a single-site binding equation. Errors reported are ±stdev of n=3 independent experiments.
# Based on the finding that the consensus ZAPs contain features consistent with binding and inserting into the activation pocket, several related peptides were synthesized and utilized in a previously established scHGF β activation assay to assess their affinities and ability to active Met binding (Landgraf, K. E. et al. (2010) J Biol Chem 285: 40362-72). Since scHGF β can only weakly interact with the Met Sema-PSI domain compared to the active HGF β form, biolayer interferometry was used in the activation assay to measure the ability of a peptide to directly enhance the binding affinity of scHGF β to a streptavidin sensor surface coated with biotinylated Met (Landgraf, K. E. et al. (2010) J Biol Chem 285: 40362-72). Thus, titration of an activator peptide should result in a significant increase in the surface response signal due to enhanced scHGF β binding to Met.
Compound,"activation of scHGF / cell survival, in words (scHGF)",Kd (scHGF β),"binding to scHGF β / activation of Met binding, in words (scHGF β)",further results
"CC[C@H](C)[C@H](N)C(=O)N[C@H](C(=O)N[C@@H](CC(=O)O)C(=O)NCC(=O)N[C@@H](Cc1ccc(O)cc1)C(=O)N1CCC[C@H]1C(=O)N[C@@H](Cc1c[nH]c2ccccc12)C(=O)N[C@@H](Cc1c[nH]c2ccccc12)C(=O)N[C@@H](CCSC)C(=O)N[C@@H](CC(=O)O)C(=O)N[C@H](C(N)=O)C(C)C)C(C)C [IVDG.14, I V D G Y P W W M D V] (H-IVDGYPWWMDV-NH2; N-terminus assumed)",partial scHGF signaling activity,–,–,–
"CC[C@H](C)[C@H](N)C(=O)N[C@H](C(=O)NCC(=O)NCC(=O)N[C@@H](CC(=O)O)C(=O)N1CCC[C@H]1C(=O)N[C@@H](Cc1ccc(O)cc1)C(=O)N[C@@H](Cc1c[nH]c2ccccc12)C(=O)N[C@H](C(=O)N1CCC[C@H]1C(=O)N[C@@H](Cc1c[nH]cn1)C(=O)N1CCC[C@H]1C(=O)NCC(=O)N[C@@H](CC(=O)O)C(=O)N[C@@H](C)C(N)=O)C(C)C)[C@@H](C)CC [ZAP.01, I I G G D P Y W V P H P G D A] (H-IIGGDPYWVPHPGDA-NH2; N-terminus assumed)",–,6 ± 1 µM,–,"EC50 of scHGF activation, order of magnitude in words (scHGF; Bx-PC3 cell survival, dose-titrations): micromolar"
"CC[C@H](C)[C@H](N)C(=O)N[C@H](C(=O)NCC(=O)NCC(=O)N[C@@H](CO)C(=O)N1CCC[C@H]1C(=O)N[C@@H](Cc1ccc(O)cc1)C(=O)N[C@@H](Cc1c[nH]c2ccccc12)C(=O)N[C@@H](CCSC)C(=O)N[C@@H](CC(=O)O)C(=O)N[C@@H](CCCNC(=N)N)C(=O)N[C@@H](CCC(=O)O)C(=O)N[C@@H](CCC(=O)O)C(=O)N[C@@H](CO)C(=O)N[C@H](C(N)=O)[C@@H](C)CC)[C@@H](C)CC [ZAP.03S, I I G G S P Y W M D R E E S I] (H-IIGGSPYWMDREESI-NH2; N-terminus assumed)",–,59 ± 30 µM,significantly impaired,–
CC[C@H](C)[C@H](N)C(=O)N[C@H](C(=O)NCC(=O)NCC(=O)N[C@H]1CSSC[C@@H](C(=O)N[C@H](C(N)=O)[C@@H](C)CC)NC(=O)[C@H](CCC(=O)O)NC(=O)[C@H](CCC(=O)O)NC(=O)[C@H](CCCNC(=N)N)NC(=O)[C@H](CC(=O)O)NC(=O)[C@H](CCSC)NC(=O)[C@H](Cc2c[nH]c3ccccc23)NC(=O)[C@H](Cc2ccc(O)cc2)NC(=O)[C@@H]2CCCN2C1=O)[C@@H](C)CC [ZAP.03] (H-IIGGCPYWMDREECI-NH2; disulfide 5-14),–,0.3 ± 0.1 µM,–,AC50 (scHGF β): 0.3 µM
"CC[C@H](C)[C@H](N)C(=O)N[C@H](C(=O)NCC(=O)NCC(=O)N[C@@H](CC(=O)O)C(=O)N[C@@H](Cc1ccc(O)cc1)C(=O)N[C@@H](Cc1c[nH]c2ccccc12)C(=O)N[C@@H](Cc1c[nH]c2ccccc12)C(=O)N[C@H](C(=O)N1CCC[C@H]1C(=O)N[C@H](C(N)=O)[C@@H](C)CC)C(C)C)C(C)C [ZAP.09, IVGGDYWWVPI] (H-IVGGDYWWVPI-NH2; N-terminus assumed)",–,–,–,AC50 (scHGF β): 42 µM
G I G G C P Y W M D R E E C I (GIGGCPYWMDREECI) [ZAP.03G],dramatically hindered its activity,–,significantly impairs its binding; also recorded: significantly impaired,–
G V G G Y P W W M D V (GVGGYPWWMDV) [GVGG.14],no detectable activity,–,lack of activity; also recorded: completely abolished activity,–
I V D D Y P W W M D V (IVDDYPWWMDV) [IVDD.14],–,–,no detectable binding,–
I V G D Y P W W M D V (IVGDYPWWMDV) [IVGD.14],–,–,no detectable binding,–
